The values that follow come from PubChem BioAssay AID1745844 (Carcinogenic Potency Database (CPDB), 2022).

The source made the active and inactive calls. No rule for the calls is given here.

The subject of this data set is rodent lifetime carcinogenesis bioassay, tumor incidence TD50. As to the kind of experiment: carcinogenic potency in animals, long-term in vivo studies, CPDB compilation (AID 1745844).

By TD50 is commonly meant the 50% point of the dose-response relation for the toxic effect studied. With `CCN(Cc1cccc(S(=O)(=O)O)c1)c1ccc(C(=C2C=CC(=[N+](CC)Cc3cccc(S(=O)(=O)O)c3)C=C2)c2ccc(O)cc2S(=O)(=O)[O-])cc1`, the carcinogen call was “negative (inactive)” (mouse, strain C3HeB/FeJ, females, in feed, site: any site (literature study), lesion: malignant tumor, dosed 104 weeks, study length 104 weeks); “negative (inactive)” (mouse, strain C3HeB/FeJ, females, in feed, site: any site (literature study), lesion: several types, types named in the paper, dosed 104 weeks, study length 104 weeks); “negative (inactive)” (mouse, strain C3HeB/FeJ, females, in feed, site: liver, lesion: hepatocellular adenoma, dosed 104 weeks, study length 104 weeks); “negative (inactive)” (mouse, strain C3HeB/FeJ, males, in feed, site: any site (literature study), lesion: malignant tumor, dosed 104 weeks, study length 104 weeks); “negative (inactive)” (mouse, strain C3HeB/FeJ, males, in feed, site: lung, lesion: adenoma, dosed 104 weeks, study length 104 weeks); “negative (inactive)” (rat, strain Osborne-Mendel, females, in feed, site: liver, lesion: one or several types, types not named, dosed 104 weeks, study length 104 weeks). Further, the carcinogen call is “negative (inactive)” (rat, strain Osborne-Mendel, females, in feed, site: mammary gland, lesion: fibroadenoma, dosed 104 weeks, study length 104 weeks); “negative (inactive)” (rat, strain Osborne-Mendel, males, in feed, site: any site (literature study), lesion: malignant tumor, dosed 104 weeks, study length 104 weeks); “negative (inactive)” (rat, strain Osborne-Mendel, males, in feed, site: any site (literature study), lesion: several types, types named in the paper, dosed 104 weeks, study length 104 weeks); “negative (inactive)” (rat, strain Osborne-Mendel, males, in feed, site: liver, lesion: hepatocellular adenoma, dosed 104 weeks, study length 104 weeks). Besides, the TD50 runs as follows: (mouse, strain C3HeB/FeJ, females, in feed, site: lung, lesion: adenoma, dosed 104 weeks, study length 104 weeks) 133000 mg/kg/day (inactive); (mouse, strain C3HeB/FeJ, males, in feed, site: any site (literature study), lesion: several types, types named in the paper, dosed 104 weeks, study length 104 weeks) 18100 mg/kg/day (inactive); (rat, strain Osborne-Mendel, females, in feed, site: any site (literature study), lesion: malignant tumor, dosed 104 weeks, study length 104 weeks) 46700 mg/kg/day (inactive); (rat, strain Osborne-Mendel, females, in feed, site: any site (literature study), lesion: several types, types named in the paper, dosed 104 weeks, study length 104 weeks) 18500 mg/kg/day (inactive).

For `CC(C)n1c(/C=C/[C@H](O)C[C@H](O)CC(=O)O)c(-c2ccc(F)cc2)c2ccccc21`, the TD50 by setting is: (rat, strain Charles River CD (Sprague-Dawley), females, by gavage, site: liver, lesion: hepatocellular adenoma, dosed 104 weeks, study length 104 weeks) 2780 mg/kg/day; (rat, strain Charles River CD (Sprague-Dawley), females, by gavage, site: liver, lesion: hepatocellular carcinoma, dosed 104 weeks, study length 104 weeks) 916 mg/kg/day; (rat, strain Charles River CD (Sprague-Dawley), females, by gavage, site: stomach, lesion: papilloma, dosed 104 weeks, study length 104 weeks) 916 mg/kg/day; (rat, strain Charles River CD (Sprague-Dawley), males, by gavage, site: stomach, lesion: papilloma, dosed 104 weeks, study length 104 weeks) 610 mg/kg/day; (rat, strain Charles River CD (Sprague-Dawley), males, by gavage, site: stomach, lesion: squamous-cell carcinoma, dosed 104 weeks, study length 104 weeks) 919 mg/kg/day; (rat, strain Charles River CD (Sprague-Dawley), males, by gavage, site: thyroid gland, lesion: follicular adenocarcinoma, dosed 104 weeks, study length 104 weeks) 258 mg/kg/day. The TD50 (rat, strain Charles River CD (Sprague-Dawley), males, by gavage, site: thyroid gland, lesion: follicular-cell adenoma, dosed 104 weeks, study length 104 weeks) is 125 mg/kg/day.

Regarding `C[N+](C)(C)CCCl`, the TD50 by setting is: (mouse, strain B6AKF1, females, oral dosing, site: any site (literature study), lesion: several types, types named in the paper, dosed 76 weeks, study length 76 weeks) 33.5 mg/kg/day; (mouse, strain B6AKF1, males, oral dosing, site: any site (literature study), lesion: several types, types named in the paper, dosed 76 weeks, study length 76 weeks) 21.3 mg/kg/day; (mouse, strain B6AKF1, males, oral dosing, site: liver, lesion: hepatoma, dosed 76 weeks, study length 76 weeks) 11.4 mg/kg/day; (mouse, strain B6C3F1, females, oral dosing, site: any site (literature study), lesion: several types, types named in the paper, dosed 76 weeks, study length 76 weeks) 57.4 mg/kg/day; (mouse, strain B6C3F1, males, in feed, site: any site (literature study), lesion: several types, types named in the paper, dosed 102 weeks, study length 102 weeks) 3240 mg/kg/day (inactive); (mouse, strain B6C3F1, males, in feed, site: liver, lesion: hepatocellular adenoma + hepatocellular carcinoma + neoplastic nodule, dosed 102 weeks, study length 102 weeks) 599 mg/kg/day. In addition, the TD50 is, setting by setting: (mouse, strain B6C3F1, males, oral dosing, site: any site (literature study), lesion: several types, types named in the paper, dosed 76 weeks, study length 76 weeks) 5.19 mg/kg/day; (mouse, strain B6C3F1, males, oral dosing, site: liver, lesion: hepatoma, dosed 76 weeks, study length 76 weeks) 9.38 mg/kg/day; (rat, strain Fischer 344, females, in feed, site: liver, lesion: hepatocellular adenoma + hepatocellular carcinoma + neoplastic nodule, dosed 108 weeks, study length 108 weeks) 8090 mg/kg/day; (rat, strain Fischer 344, males, in feed, site: any site (literature study), lesion: several types, types named in the paper, dosed 108 weeks, study length 108 weeks) 3360 mg/kg/day; (rat, strain Fischer 344, males, in feed, site: pancreatic islets, lesion: islet-cell adenoma, dosed 108 weeks, study length 108 weeks) 458 mg/kg/day (inactive). The carcinogen call reads like this: (mouse, strain B6C3F1, females, in feed, site: any site (literature study), lesion: several types, types named in the paper, dosed 102 weeks, study length 102 weeks) “negative (inactive)”; (rat, strain Fischer 344, females, in feed, site: any site (literature study), lesion: several types, types named in the paper, dosed 108 weeks, study length 108 weeks) “negative (inactive)”.
